In assay [1] the target is T1, Vasoactive intestinal polypeptide receptor 2 (Homo sapiens, UniProt P41587).
T1 sequence (P41587 whole entry): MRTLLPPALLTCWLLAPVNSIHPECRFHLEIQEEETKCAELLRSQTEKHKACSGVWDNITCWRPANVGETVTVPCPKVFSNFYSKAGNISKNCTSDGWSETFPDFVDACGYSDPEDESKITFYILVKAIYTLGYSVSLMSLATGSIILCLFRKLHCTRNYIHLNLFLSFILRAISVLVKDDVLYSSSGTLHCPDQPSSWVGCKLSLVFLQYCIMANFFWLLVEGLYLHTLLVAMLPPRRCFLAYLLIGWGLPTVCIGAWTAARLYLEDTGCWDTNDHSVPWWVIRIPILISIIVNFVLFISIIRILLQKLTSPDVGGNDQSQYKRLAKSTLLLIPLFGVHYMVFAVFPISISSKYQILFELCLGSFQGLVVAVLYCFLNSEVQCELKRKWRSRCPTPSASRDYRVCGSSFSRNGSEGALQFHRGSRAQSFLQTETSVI
Description: Agonist activity at human VIPR2 expressed in CHOK1 cells assessed as intracellular cAMP accumulation after 60 mins by PathHunter assay. In kind it is functional, cell-based. (In general: Cyclic AMP is a second messenger, typically raised through Gs and lowered through Gi signalling.)

For assay [2], the target named is T2, Vasoactive intestinal polypeptide receptor 1 (Homo sapiens, UniProt P32241).
T2 sequence (P32241 whole entry): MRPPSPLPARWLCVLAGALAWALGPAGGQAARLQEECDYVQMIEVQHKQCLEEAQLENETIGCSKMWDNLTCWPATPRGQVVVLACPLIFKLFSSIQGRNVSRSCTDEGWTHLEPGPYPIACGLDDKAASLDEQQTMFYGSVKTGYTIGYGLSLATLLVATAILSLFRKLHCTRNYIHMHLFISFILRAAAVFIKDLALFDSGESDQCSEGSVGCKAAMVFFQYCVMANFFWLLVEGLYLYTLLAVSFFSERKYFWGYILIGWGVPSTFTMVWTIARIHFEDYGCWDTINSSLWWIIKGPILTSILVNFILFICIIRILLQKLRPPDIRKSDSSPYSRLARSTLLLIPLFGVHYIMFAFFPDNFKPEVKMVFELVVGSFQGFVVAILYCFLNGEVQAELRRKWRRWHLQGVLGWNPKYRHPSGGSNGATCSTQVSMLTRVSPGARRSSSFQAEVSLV
Description: Agonist activity at human VIPR1 expressed in CHOK1 cells assessed as intracellular cAMP accumulation after 60 mins by PathHunter assay. The assay is classed as functional, cell-based.

pEC50: −log10 of the molar value. Numbered stars: 1 amine (or outer) side, 2 acyl side, 3 side chain; on linkers, the order of the positions; unused ones are H or OH. Square brackets hold non-standard residues; d marks the D form. Peptide text beside a SMILES is read from it. ξ: configuration not given here. X1 = O=C([C@H]1CCC[C@@H]1N[*:1])[*:2]; X2 = O=C([C@H]1CNC[C@@H]1N[*:1])[*:2]; ξβ3hY = NC(CC(=O)O)Cc1ccc(O)cc1; ξβ3hL = CC(C)CC(N)CC(=O)O; ξβ3hK = NCCCCC(N)CC(=O)O; βAla = NCCC(=O)O Where only a bound is given, the exact number is not on record here.

As for `CC(=O)N[C@@H](Cc1cnc[nH]1)C(=O)N[C@H]1CCC[C@@H]1C(=O)N[C@@H](CC(=O)O)C(=O)N[C@@H](C)C(=O)N[C@H]1CCC[C@@H]1C(=O)N[C@@H](Cc1ccccc1)C(=O)N[C@H](C(=O)N[C@@H](CCC(=O)O)C(=O)N[C@H]1CCC[C@@H]1C(=O)NC(CC(=O)N[C@H](C(=O)N[C@@H](CCCCN)C(=O)N[C@@H](CC(C)C)C(=O)N[C@@H](CCCNC(=N)N)C(=O)N[C@@H](CCCCN)C(=O)N[C@@H](CCC(N)=O)C(=O)NC(CC(=O)N[C@@H](C)C(=O)N[C@@H](C)C(=O)N[C@H]1CNC[C@@H]1C(=O)N[C@@H](CCCCN)C(=O)N[C@@H](Cc1ccc(O)cc1)C(=O)N[C@H]1CCC[C@@H]1C(=O)N[C@@H](CC(N)=O)C(=O)N[C@@H](CC(=O)O)C(=O)N[C@@H](CC(C)C)C(=O)NC(CCCCN)CC(=O)N[C@@H](CCCCN)C(=O)NCC(=O)NCCC(=O)N[C@H](C(=O)O)[C@@H](C)O)CC(C)C)[C@@H](C)O)Cc1ccc(O)cc1)[C@@H](C)O` (stereo partly drawn) (Ac-H[X1]DA[X1]FTE[X1][ξβ3hY]TKLRKQ[ξβ3hL]AA[X2]KY[X1]NDL[ξβ3hK]KG[βAla]T-OH), the pEC50 – broadly, the negative decadic logarithm of the EC50, by convention in mol/L – in assay [1] is 8.93; in assay [2], 6.10.

Turning to `CC(=O)N[C@@H](Cc1cnc[nH]1)C(=O)N[C@H]1CCC[C@@H]1C(=O)N[C@@H](CC(=O)O)C(=O)N[C@@H](C)C(=O)N[C@H]1CCC[C@@H]1C(=O)N[C@@H](Cc1ccccc1)C(=O)N[C@H](C(=O)N[C@@H](CCC(=O)O)C(=O)N[C@H]1CCC[C@@H]1C(=O)NC(CC(=O)N[C@H](C(=O)N[C@@H](CCCCN)C(=O)N[C@@H](CC(C)C)C(=O)N[C@@H](CCCNC(=N)N)C(=O)N[C@@H](CCCCN)C(=O)NCCC(=O)N[C@@H](CC(C)C)C(=O)N[C@@H](C)C(=O)N[C@@H](C)C(=O)N[C@H]1CNC[C@@H]1C(=O)N[C@@H](CCCCN)C(=O)N[C@@H](Cc1ccc(O)cc1)C(=O)N[C@H]1CCC[C@@H]1C(=O)N[C@@H](CC(N)=O)C(=O)N[C@@H](CC(=O)O)C(=O)N[C@@H](CC(C)C)C(=O)NC(CCCCN)CC(=O)N[C@@H](CCCCN)C(=O)NCC(=O)NCCC(=O)N[C@H](C(=O)O)[C@@H](C)O)[C@@H](C)O)Cc1ccc(O)cc1)[C@@H](C)O` (stereo partly drawn) (Ac-H[X1]DA[X1]FTE[X1][ξβ3hY]TKLRK[βAla]LAA[X2]KY[X1]NDL[ξβ3hK]KG[βAla]T-OH), the results for the negative logarithm of the EC50 (pEC50) in assay [1] and in assay [2] were 8.99 and under 6.00, respectively.

Consider `CC(=O)N[C@@H](Cc1cnc[nH]1)C(=O)N[C@H]1CCC[C@@H]1C(=O)N[C@@H](CC(=O)O)C(=O)N[C@@H](C)C(=O)N[C@H]1CCC[C@@H]1C(=O)N[C@@H](Cc1ccccc1)C(=O)N[C@H](C(=O)N[C@@H](CCC(=O)O)C(=O)N[C@H]1CCC[C@@H]1C(=O)NC(CC(=O)N[C@H](C(=O)N[C@@H](CCCCN)C(=O)N[C@@H](CC(C)C)C(=O)N[C@@H](CCCNC(=N)N)C(=O)NC(CCCCN)CC(=O)N[C@@H](CCC(N)=O)C(=O)N[C@@H](CC(C)C)C(=O)N[C@@H](C)C(=O)N[C@@H](C)C(=O)N[C@H]1CNC[C@@H]1C(=O)N[C@@H](CCCCN)C(=O)N[C@@H](Cc1ccc(O)cc1)C(=O)N[C@H]1CCC[C@@H]1C(=O)N[C@@H](CC(N)=O)C(=O)N[C@@H](CC(=O)O)C(=O)N[C@@H](CC(C)C)C(=O)NC(CCCCN)CC(=O)N[C@@H](CCCCN)C(=O)NCC(=O)NCCC(=O)N[C@H](C(=O)O)[C@@H](C)O)[C@@H](C)O)Cc1ccc(O)cc1)[C@@H](C)O` (stereo partly drawn) (Ac-H[X1]DA[X1]FTE[X1][ξβ3hY]TKLR[ξβ3hK]QLAA[X2]KY[X1]NDL[ξβ3hK]KG[βAla]T-OH), for which the values for the pEC50 in assay [1] and in assay [2] were under 6.00 and 6.34, respectively.

(Values after ChEMBL document CHEMBL4257221, “Peptides comprising non-natural amino acids and methods of making and using the same” (2016).)
